According to patent publication US20150118229A1, “JAK1 SELECTIVE INHIBITOR AND USES THEREOF” (ABBVIE INC., priority 2013, published 2015):
Values joined by “and” are separate entries in the source; they are usually repeats but may differ in a detail not shown here. Equal values may be shown once. Read-outs that look alike come from different tables or passages of the source.

Experiments:
[1] = system: adjuvant-induced arthritis (paw swelling, bone erosion); experiment: Adjuvant-induced arthritis (AIA) in Lewis rats; assay type: in vivo
Method: The inflammation appears in the contra-lateral (left) hind paw seven days after the initial immunization. […] Rats are lightly anesthetized with an inhalant anesthetic (isoflurane) and the contra-lateral (left) hind paw is dipped into the plethysmograph and the paw volume is recorded. The rats are scored every other day up to day 17 after immunization. […] Bone volume and density is determined for a 360 μm (200 slice) vertical section encompassing the tarsal section of the paw. […] Drug exposure is determined in the plasma using LC/MS.

[2] = system: peripheral NK cell counts; experiment: Peripheral NK cell counts in healthy rats; assay type: in vivo, rat
Excerpt: The correlation of this effect with ex vivo cytokine signaling inhibition is shown in the right panel of FIG. 6. These measurements correlated well, confirming the Jak dependency of the NK cell count endpoint.
To establish the relationship between changes in NK cell counts and nonclinical efficacy, the changes in NK cell counts were compared with decreases in rat AIA disease activity per unit exposure.

[3] = Pharmacokinetics in monkey; assay type: in vivo; details: for Vd: read-out: Vss
[4] = Pharmacokinetics across species; assay type: in vivo; details: rat, monkey, dog, plasma
[5] = Plasma protein binding, human; assay type: in vitro ADME
[6] = Metabolic stability in liver microsomes, monkey; assay type: in vitro ADME; details: read-out: intrinsic clearance in liver microsomes (scaled)
[7] = Metabolic stability in liver microsomes, human; assay type: in vitro ADME; details: read-out: intrinsic clearance in liver microsomes (converted)
[8] = system: all other CYPs; experiment: Metabolism by all other recombinant CYPs; assay type: in vitro ADME
[9] = system: CYP1A2; experiment: CYP induction (mRNA) in human hepatocytes, CYP1A2; assay type: in vitro ADME; details: 1, 3, and 10 μM
[10] = system: Balb/c 3T3 mouse fibroblasts; experiment: Neutral red uptake phototoxicity assay; assay type: cell-based
[11] = Non-GLP 4-week oral screening toxicity study in dogs; assay type: in vivo, beagle dogs; details: dog, 4 weeks
[12] = Pivotal 4-week GLP oral toxicity study in dogs; assay type: in vivo, beagle dogs
Excerpt: The GLP-compliant studies each included 4 weeks of oral dosing followed by a 4-week recovery period in both rats and dogs followed by GLP-compliant chronic toxicity studies in rats (6 months of oral dosing) and dogs (9 months of oral dosing).

[13] = Human PK in healthy Japanese and Chinese subjects, Study M13-543; assay type: in vivo; details: for AUC12/dose / Cmax/dose / Ctrough/Dose: Day 14, mean (% CV); for half-life / AUC / concentration at 14 day / AUC(0-t): human, plasma, oral; for AUC: read-out: AUC12; for concentration at 14 day: read-out: Ctrough; for AUC(0-t): mean (% CV)
Excerpt: Two additional subjects were assigned to each dose level as placebo control.

[14] = dog, in vivo
[15] = in vivo; details: both, rat, po
Method: The 4-week rat study was conducted at dose levels of 0, 10, 50, 100, and 200 mg/kg/day by daily oral administration (gavage). […] The cause of death was not determined for animals that died.

[16] = target: OCT1 (Homo sapiens, UniProt O15245); experiment: Transporter inhibition, OCT1; details: up to 30 μM
[17] = target: CYP2D6 (Homo sapiens, UniProt P10635); experiment: Metabolism by recombinant CYP2D6; assay type: in vitro ADME; design: from tissue; host or cells: human liver microsomes
Excerpt: In vitro biotransformation of Compound 1 primarily occurred at imidazolpyrrolopyrazinyl ethyl pyrrolidine moiety.

[18] = plasma, oral 1 mg/kg single dose, mean (SD)
[19] = plasma, oral 10 mg/kg single dose, mean (SD)
[20] = Japanese, 6 & 24 mg single doses
[21] = 18 mg, Chinese, 18 mg BID, Day 14
[22] = 18 mg, Japanese, 18 mg BID, Day 14

Sequence of OCT1 (O15245 whole entry): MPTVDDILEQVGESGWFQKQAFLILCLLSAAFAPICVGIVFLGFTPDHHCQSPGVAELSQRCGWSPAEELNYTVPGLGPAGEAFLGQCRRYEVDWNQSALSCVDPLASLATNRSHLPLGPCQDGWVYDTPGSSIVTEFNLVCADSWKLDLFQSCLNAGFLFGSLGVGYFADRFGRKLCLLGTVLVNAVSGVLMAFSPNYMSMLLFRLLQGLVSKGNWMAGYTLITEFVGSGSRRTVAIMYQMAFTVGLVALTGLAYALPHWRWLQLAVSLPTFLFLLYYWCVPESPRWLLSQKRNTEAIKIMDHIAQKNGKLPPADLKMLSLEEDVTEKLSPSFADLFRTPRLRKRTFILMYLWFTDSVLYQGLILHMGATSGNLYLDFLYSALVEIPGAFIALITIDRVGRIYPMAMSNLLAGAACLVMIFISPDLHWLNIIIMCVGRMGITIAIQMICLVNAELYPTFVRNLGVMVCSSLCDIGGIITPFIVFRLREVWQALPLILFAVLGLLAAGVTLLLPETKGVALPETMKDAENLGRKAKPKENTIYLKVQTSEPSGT
Sequence of CYP2D6 (P10635 whole entry): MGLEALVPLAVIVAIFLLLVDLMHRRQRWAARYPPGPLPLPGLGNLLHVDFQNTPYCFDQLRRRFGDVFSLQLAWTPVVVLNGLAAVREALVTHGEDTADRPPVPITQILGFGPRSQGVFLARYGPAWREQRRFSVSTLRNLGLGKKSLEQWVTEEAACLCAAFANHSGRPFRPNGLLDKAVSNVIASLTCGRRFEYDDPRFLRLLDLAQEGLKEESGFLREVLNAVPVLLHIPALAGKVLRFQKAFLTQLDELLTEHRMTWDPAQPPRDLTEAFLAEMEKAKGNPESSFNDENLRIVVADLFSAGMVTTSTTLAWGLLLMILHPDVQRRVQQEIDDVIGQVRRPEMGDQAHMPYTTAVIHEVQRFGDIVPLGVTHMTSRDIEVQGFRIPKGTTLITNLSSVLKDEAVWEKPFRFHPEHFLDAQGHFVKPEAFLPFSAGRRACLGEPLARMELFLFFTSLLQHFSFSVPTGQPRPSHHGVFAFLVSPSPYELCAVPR

What does the source list for CC[C@@H]1CN(C(=O)NCC(F)(F)F)C[C@@H]1c1cnc2cnc3[nH]ccc3n12 [Compound 1, (3S,4R)-3-ethyl-4-(3H-imidazo[1,2-a]pyrrolo[2,3-e]pyrazin-8-yl)-N-(2,2,2-trifluoroethyl)pyrrolidine-1-carboxamide]?
protection of bone erosion (tarsal bone volume, micro CT) ([1]; 3 mg/kg bid): complete protection; efficacious exposure (AUC60), PK/PD modeling ([1]; AIA rats, about 60% inhibition of paw swelling): 85 ng·h/mL; AUC60 (60% inhibition of paw swelling), total AUC0-12 ([1]; oral bid, last day of study): 85 ± 20 ng·h/mL and 85 ng·h/mL; AUC60, fraction unbound AUC0-12 ([1]; oral bid, last day of study): 34 ± 7 ng·h/mL; Paw Swelling (exposure) ([1]; rat AIA): 62 ng·h/mL; inhibition of Paw Swelling reached at about the same level of reticulocyte inhibition ([1]; rat AIA vs reticulocyte deployment): about 80%; effects on peripheral NK cell counts ([2]; over the efficacious exposure range, rat): less than that of Tofacitinib; predicted maximum decrease of NK cell counts ([2]; over the intended clinical exposure range, on the basis of rat models): approximately 40%; NK Counts (exposure) ([2]; rat): 290 ng·h/mL; NK cell count decrease at about 60% efficacy (inhibition of paw swelling) ([2]; rat): ~25%; Vc ([3]; IV 0.1 mg/kg single dose): 1.2 L/kg; Vβ ([3]; IV 0.1 mg/kg single dose): 2.2 L/kg; Vc ([3]; IV 1.0 mg/kg single dose): 1.0 L/kg; Vβ ([3]; IV 1.0 mg/kg single dose): 2.2 L/kg; F ([3]; oral 1 mg/kg single dose, mean (SD), 1 mg/kg): 59.3% and 59.3 (18.1) %; F ([3]; oral 10 mg/kg single dose, mean (SD)): 52.3 (12.4) %; AUC(0-inf) ([3]; plasma, IV 0.1 mg/kg single dose, mean (SD)): 72 ng·h/mL; clearance ([3]; plasma, IV 0.1 mg/kg single dose, mean (SD), read-out: CLp (converted)): 23.3 mL/min/kg; Vd ([3]; plasma, IV 0.1 mg/kg single dose): 1.9 L/kg; half-life ([3]; plasma, IV 0.1 mg/kg single dose, read-out: t1/2 (converted)): 1.1 h; AUC(0-inf) ([3]; plasma, IV 1.0 mg/kg single dose, mean (SD)): 947 ng·h/mL; clearance ([3]; plasma, IV 1.0 mg/kg single dose, mean (SD), read-out: CLp (converted)): 20 mL/min/kg; Vd ([3]; plasma, IV 1.0 mg/kg single dose): 1.6 L/kg; half-life ([3]; plasma, IV 1.0 mg/kg single dose, read-out: t1/2 (converted)): 1.3 h; clearance ([3]; plasma, IV, read-out: clearance (converted)): 21.7 mL/min/kg; half-life ([3]; plasma, IV, read-out: plasma elimination t½ (converted)): 1.2 h; AUC(0-inf) [3, 18]: 562 ng·h/mL; Cmax [3, 18]: 134 ng/mL; AUC(0-inf) [3, 19]: 4950 ng·h/mL; Cmax [3, 19]: 960 ng/mL; Tmax [3, 19]: 4.3 h; Vd ([4]; iv, all species, read-out: Vss): 1.6 to 2.7 L/kg; half-life ([4]; oral, read-out: plasma elimination half-life after oral dosing): 3 to 5 h; fraction unbound [5]: 0.53; CLint scaled at 0.5 μM [6]: < 26.7 mL/min/kg; CLint scaled at 0.5 μM [7]: 31.2 mL/min/kg; percentage of parent remaining [8]: greater than 98.0%; mRNA expression of CYP1A2 [9]: did not increase; phototoxicity potential [10]: negative; NOAEL ([11]; 5 mg/kg/day): None; Adverse Findings ([11]; leading number = dose mg/kg/day): 5: Popliteal lymph; NOAEL at 4 weeks ([12]; both sexes, beagle, in vivo, dog, 4 weeks GLP, oral capsule): 1.5 mg/kg/day; AUC(0-t) ([12]; both, beagle, plasma, oral, dog 1.5 mg/kg/day, males and females combined, read-out: AUC0-24 at NOAEL): 1200 ng·h/mL; decreases in red cell mass (up to) ([12]; dog, 3 mg/kg/day): −23%; decreases in circulating lymphocytes compared with baseline ([12]; dog, 5 mg/kg/day): −20% to −37%; decreases in red cell mass (up to) ([12]; dog, 5 mg/kg/day): −32%; Adverse Findings ([12]; dog, 4 weeks GLP, leading number = dose mg/kg/day): ≧3: Popliteal lymph; CL/F ([13]; Chinese, 18 mg BID, Day 14): 39.0 L/h; AUC12/dose ([13]; Chinese, 18 mg BID): 25.9 ng·h/mL/mg; Cmax/dose ([13]; Chinese, 18 mg BID): 6.57 ng/mL/mg; Ctrough/Dose ([13]; Chinese, 18 mg BID): 0.43 ng/mL/mg; AUC lower than previously observed in Western subjects ([13]; Japanese, 3 mg single dose): 14%; Cmax lower than previously observed in Western subjects ([13]; Japanese, 3 mg single dose): 22%; CL/F ([13]; Japanese, 18 mg BID, Day 14): 35.2 L/h; AUC12/dose ([13]; Japanese, 18 mg BID): 29.0 ng·h/mL/mg; Cmax/dose ([13]; Japanese, 18 mg BID): 7.08 ng/mL/mg; Ctrough/Dose ([13]; Japanese, 18 mg BID): 0.48 ng/mL/mg; AUC higher than previously observed in Western subjects [13, 20]: 16-18%; Cmax higher than previously observed in Western subjects [13, 20]: 9%; half-life ([13]; 6 mg, Japanese, single dose 6 mg, harmonic mean (pseudo % CV), not a robust estimate, read-out: t1/2 (converted)): 5.5 h; AUC ([13]; 18 mg, Chinese, 18 mg BID, Day 1, mean (% CV)): 410 ng·h/mL; AUC [13, 21]: 466 ng·h/mL; concentration at 14 day [13, 21]: 7.7 ng/mL; AUC ([13]; 18 mg, Japanese, 18 mg BID, Day 1, mean (% CV)): 440 ng·h/mL; half-life ([13]; 18 mg, Japanese, 18 mg BID, Day 14, harmonic mean (pseudo % CV), read-out: t1/2 (converted)): 9.51 h; AUC [13, 22]: 522 ng·h/mL; concentration at 14 day [13, 22]: 8.61 ng/mL; half-life ([13]; Japanese, Chinese, and Western healthy subjects, read-out: terminal t1/2): 7 to 9.5 h; AUC(0-t) ([13]; Japanese, single dose 3 mg): 87.9 ng·h/mL; AUC(0-t) ([13]; Japanese, single dose 6 mg): 185 ng·h/mL; AUC(0-t) ([13]; Japanese, single dose 24 mg): 722 ng·h/mL; dose-normalized AUC and Ctrough higher in Asians than Westerns ([13]; multiple BID dosing): approximately 20%; dose-normalized Cmax higher in Asians than Westerns ([13]; multiple BID dosing): approximately 40%; AUC lower in fed than fasted animals [14]: approximately 40%; Cmax lower in fed than fasted animals [14]: approximately 3 fold; Vc ([14]; iv, 1 mg/kg): 1.9 L/kg; Vβ ([14]; iv, 1 mg/kg): 2.9 L/kg; F ([14]; po, 5 mg/kg): 65.8 (12.1) %; NOAEL at 4 weeks [15]: 50 mg/kg/day; inhibition of OCT1 uptake [16]: No significant inhibition; percentage of parent remaining [17]: 73.4%
